According to patent US9597436B2, “Advanced heart failure treatment material as myocardial/cardiovascular regeneration device” (Osaka University, priority 2012, dated 2017):

Legend:
[1] = test system: coculture of NHDF and HUVEC; assay: Internal regeneration factors under coculture of NHDF and HUVEC; format: cell-based, human
Source text: The compound 1 is a low molecular […] having the non-PG skeleton, and TXA2 synthase inhibitory action as well as selective IP agonist action is integrated into the molecule.

fibroblasts = conditions: cited from earlier work
[2] = test system: acute hepatopathy induced by carbon tetrachloride; conditions: cited from earlier work

## O=C(O)COc1cccc2c1CCC=C2CCO/N=C(\c1ccccc1)c1cccnc1 [Compound 1, (E)-[5-[2-[1-phenyl-1-(3-pyridyl)methylideneaminoxy]ethyl]-7,8-dihydronaphthalen-1-yloxy]acetic acid]
[1]
  internal regeneration factors (HGF, VEGF, EGF, IGF-1, SDF-1, G-CSF): indicates various types of internal regeneration factors
fibroblasts
  migration, proliferation, and collagen production of fibroblasts: suppresses
fibroblasts; progressed due to pathology, by activation of cAMP/PKA
  phosphorylation of ERK1/2: suppresses
[2]
  hepatocyte protection (anti-apoptotic and anti-necrosis action): exhibits hepatocyte protection effects
  increases in ALT and AST in blood: suppresses
